Results as given in BindingDB's records for doi:10.1007/s002109900141 (Novartis Pharma, 1999).
pKi: −log10 of the molar value. Where “and” joins values, the source holds several entries; their conditions need not be identical. Equal values may be shown once. *1 amine or outer side, *2 acyl side, *3 side chain or, on linkers, in order; H or OH if unused. Where a SMILES comes first, the peptide text is derived from it. Bridges are numbered along the chain shown (N, C = ends). [ ]: non-standard residue; d: D form. The star is where a group is joined. d1Nal = N[C@H](Cc1cccc2ccccc12)C(=O)O; Asu = N[C@@H](CCCCCC(=O)O)C(=O)O; X1 = O=C(C(N[*:1])S[*:3])[*:2]; Ahp = NCCCCCCC(=O)O; Bn = c1ccc(C*)cc1; Mpa = O=C(O)CCS

Experiments:
[1] = target: Somatostatin receptor type 3 (Homo sapiens, UniProt P32745)
Chain of Somatostatin receptor type 3 (P32745 whole entry): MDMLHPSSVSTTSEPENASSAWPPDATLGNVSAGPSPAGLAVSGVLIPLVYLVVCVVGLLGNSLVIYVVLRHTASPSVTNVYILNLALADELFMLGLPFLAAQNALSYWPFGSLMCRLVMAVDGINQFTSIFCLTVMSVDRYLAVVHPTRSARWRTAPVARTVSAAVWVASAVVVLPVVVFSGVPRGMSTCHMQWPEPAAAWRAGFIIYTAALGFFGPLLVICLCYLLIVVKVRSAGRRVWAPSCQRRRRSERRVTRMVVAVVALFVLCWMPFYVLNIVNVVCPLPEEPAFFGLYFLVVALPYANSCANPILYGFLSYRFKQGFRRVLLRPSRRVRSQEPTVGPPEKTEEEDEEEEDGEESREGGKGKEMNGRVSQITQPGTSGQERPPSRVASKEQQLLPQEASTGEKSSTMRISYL

[2] = target: Somatostatin receptor type 1 (Homo sapiens, UniProt P30872)
Chain of Somatostatin receptor type 1 (P30872 whole entry): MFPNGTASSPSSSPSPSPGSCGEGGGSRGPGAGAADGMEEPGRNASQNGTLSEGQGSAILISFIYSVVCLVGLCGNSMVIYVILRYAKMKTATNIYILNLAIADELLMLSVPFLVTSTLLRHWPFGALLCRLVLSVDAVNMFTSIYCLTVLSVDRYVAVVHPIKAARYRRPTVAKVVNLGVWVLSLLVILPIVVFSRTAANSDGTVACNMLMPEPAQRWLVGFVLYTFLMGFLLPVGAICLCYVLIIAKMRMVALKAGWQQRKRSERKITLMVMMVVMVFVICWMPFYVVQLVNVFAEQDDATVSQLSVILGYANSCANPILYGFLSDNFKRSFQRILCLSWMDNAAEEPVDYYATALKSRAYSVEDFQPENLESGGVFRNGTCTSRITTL

[3] = target: Somatostatin receptor type 4 (Homo sapiens, UniProt P31391)
Chain of Somatostatin receptor type 4 (P31391 whole entry): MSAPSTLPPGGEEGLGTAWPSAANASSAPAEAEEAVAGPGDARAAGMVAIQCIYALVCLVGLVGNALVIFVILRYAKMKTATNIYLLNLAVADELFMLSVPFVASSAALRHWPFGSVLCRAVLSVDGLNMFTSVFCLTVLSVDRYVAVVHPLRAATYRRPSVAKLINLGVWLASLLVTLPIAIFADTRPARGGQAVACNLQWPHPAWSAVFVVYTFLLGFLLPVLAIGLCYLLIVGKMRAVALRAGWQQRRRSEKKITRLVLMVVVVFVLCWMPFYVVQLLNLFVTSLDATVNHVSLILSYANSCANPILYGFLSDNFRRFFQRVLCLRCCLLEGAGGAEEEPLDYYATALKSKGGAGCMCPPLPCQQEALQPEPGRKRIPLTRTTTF

[4] = target: Somatostatin receptor type 2 (Homo sapiens, UniProt P30874)
Chain of Somatostatin receptor type 2 (P30874 whole entry): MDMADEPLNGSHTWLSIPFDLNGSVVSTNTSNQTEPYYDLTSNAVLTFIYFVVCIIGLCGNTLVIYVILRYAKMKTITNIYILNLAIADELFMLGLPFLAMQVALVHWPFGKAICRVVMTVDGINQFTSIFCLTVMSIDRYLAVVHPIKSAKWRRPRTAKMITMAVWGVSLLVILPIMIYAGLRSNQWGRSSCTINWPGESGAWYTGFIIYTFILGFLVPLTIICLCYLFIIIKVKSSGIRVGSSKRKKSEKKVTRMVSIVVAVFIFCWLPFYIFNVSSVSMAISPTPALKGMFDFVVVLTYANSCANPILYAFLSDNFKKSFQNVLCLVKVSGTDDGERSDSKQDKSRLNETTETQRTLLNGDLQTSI

[5] = target: Somatostatin receptor type 5 (Homo sapiens, UniProt P35346)
Chain of Somatostatin receptor type 5 (P35346 whole entry): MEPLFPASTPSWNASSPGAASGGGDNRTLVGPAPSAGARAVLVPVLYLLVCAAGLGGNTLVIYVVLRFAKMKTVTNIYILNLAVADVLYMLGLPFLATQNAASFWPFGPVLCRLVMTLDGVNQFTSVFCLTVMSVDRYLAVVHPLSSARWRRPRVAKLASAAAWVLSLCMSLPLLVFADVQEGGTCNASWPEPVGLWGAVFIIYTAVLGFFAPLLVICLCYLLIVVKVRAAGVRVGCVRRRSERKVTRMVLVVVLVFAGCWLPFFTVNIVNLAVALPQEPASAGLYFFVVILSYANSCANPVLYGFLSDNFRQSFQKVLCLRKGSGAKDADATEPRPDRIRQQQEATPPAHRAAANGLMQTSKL

Compound | pKi [1] | pKi [2] | pKi [3] | pKi [4] | pKi [5]
C[C@@H](O)[C@@H]1NC(=O)[C@H](CCCCN)NC(=O)[C@@H](Cc2c[nH]c3ccccc23)NC(=O)[C@H](Cc2ccccc2)NC(=O)[C@@H]2CCCN2C(=O)[C@H](Cc2ccccc2)NC1=O (cyclo(PF[dW]KTF)) | 6.97 | 5.66 | 5.64 |  | 
CC(C)[C@@H]1NC(=O)[C@H](CCCCN)NC(=O)[C@@H](Cc2c[nH]c3ccccc23)NC(=O)[C@H](Cc2ccc(O)cc2)NC(=O)[C@@H](NC(=O)[C@H](N)Cc2ccc3ccccc3c2)CSSC[C@@H](C(=O)N[C@H](C(N)=O)[C@@H](C)O)NC1=O [3-(2-Naphtyl)-D-Ala-L-Cys(1)-L-Tyr-D-Trp-L-Lys-L-Val-L-Cys(1)-L-Thr-NH2] | 7.93 | 6.75 |  | 9.43 | 
C[C@@H](O)[C@@H]1NC(=O)[C@H](CCCCN)NC(=O)[C@@H](Cc2c[nH]c3ccccc23)NC(=O)[C@H](Cc2ccc(O)cc2)NC(=O)[C@@H](NC(=O)[C@H](N)Cc2ccccc2)CSSC[C@@H](C(=O)N[C@H](CO)[C@@H](C)O)NC1=O [10-(4-Amino-butyl)-19-(2-amino-3-phenyl-propionylamino)-16-(4-hydroxy-benzyl)-7-(1-hydroxy-ethyl)-13-(1H-indol-3-ylmethyl)-6,9,12,15,18-pentaoxo-1,2-dithia-5,8,11,14,17-pentaaza-cycloicosane-4-carboxylic acid (2-hydroxy-1-hydroxymethyl-propyl)-amide] |  | 5.69 and 5.57 and 5.82 | 5.89 and 6.29 and 6.17 |  | 
CC(C)[C@H](NC(=O)[C@H](CCCCN)NC(=O)[C@@H](Cc1c[nH]c2ccccc12)NC(=O)[C@H](Cc1ccc(O)cc1)NC(=O)[C@H](Cc1ccccc1)NC(=O)[C@H](N)Cc1ccccc1)C(=O)N[C@@H](Cc1ccccc1)C(=O)N[C@H](Cc1cccc2ccccc12)C(N)=O [BIM 23056] (H-[dF]FY[dW]KVF[d1Nal]-NH2) | 7.20 | 6.56 | 7.04 |  | 
CC(C)[C@@H]1NC(=O)[C@H](CCCCN)NC(=O)[C@@H](Cc2c[nH]c3ccccc23)NC(=O)[C@H](Cc2ccc(O)cc2)NC(=O)[C@@H](NC(=O)[C@H](N)Cc2ccccc2)CSSC[C@@H](C(=O)N[C@@H](Cc2c[nH]c3ccccc23)C(N)=O)NC1=O [CAS_71306] (H-[dF]CY[dW]KVCW-NH2; disulfide 2-7) | 7.82 | 6.65 | 6.97 |  | 
CC(C)[C@@H]1NC(=O)[C@H](CCCCN)NC(=O)[C@@H](Cc2c[nH]c3ccccc23)NC(=O)[C@H](Cc2ccc(O)cc2)NC(=O)CCSSC(C(=O)N[C@@H](Cc2ccccc2)C(N)=O)NC1=O (stereo partly specified) [CAS_117580-24-2] ([Mpa]Y[dW]KV[X1]F-NH2; disulfide 1-6) | 7.64 | 5.17 | 5.53 |  | 
C[C@@H](O)[C@H](NC(=O)[C@H](Cc1ccccc1)NC(=O)[C@@H](NC(=O)[C@H](CCCCN)NC(=O)[C@@H](Cc1c[nH]c2ccccc12)NC(=O)[C@H](Cc1ccccc1)NC(=O)[C@H](Cc1ccccc1)NC(=O)[C@H](N)Cc1ccccc1)[C@@H](C)O)C(N)=O [CAS_133073-82-2] (H-[dF]FF[dW]KTFT-NH2) | 9.72 | 8.17 | 8.13 |  | 
C[C@@H](O)[C@@H]1NC(=O)[C@H](Cc2ccc(O)cc2)NC(=O)[C@H]([C@@H](C)O)NC(=O)[C@H](CCCCN)NC(=O)[C@H](Cc2c[nH]c3ccccc23)NC(=O)[C@H](Cc2ccccc2)NC(=O)[C@H](Cc2ccccc2)NC(=O)[C@H](CC(N)=O)NC(=O)[C@H](CCCCN)NC(=O)CCCCC[C@@H](C(=O)O)NC(=O)[C@H](CO)NC1=O [CGP-23996] (KNFFWKTYTS[Asu]-OH; lactam N-11) | 9.15 | 8.45 | 8.62 |  | 
C[C@@H](O)[C@@H]1NC(=O)[C@H](CCCCN)NC(=O)[C@H](Cc2c[nH]c3ccccc23)NC(=O)[C@H](Cc2ccccc2)NC(=O)[C@H](Cc2ccccc2)NC(=O)[C@H](CC(N)=O)NC(=O)[C@H](CCCCN)NC(=O)[C@@H](NC(=O)[C@@H]2CCCN2)CSSC[C@@H](C(=O)N[C@@H](CCCCN)C(=O)O)NC(=O)[C@H](CO)NC(=O)[C@H](CO)NC(=O)[C@H](Cc2ccc(O)cc2)NC1=O [CST14-Tyr10] (H-PCKNFFWKTYSSCK-OH; disulfide 2-13) | 9.02 and 8.70 and 8.90 | 8.32 and 8.56 and 9.04 | 8.30 and 8.44 and 8.17 | 8.93 and 8.77 and 8.91 and 9.00 | 
C[C@@H](O)[C@@H]1NC(=O)[C@H](CCCCN)NC(=O)[C@H](Cc2c[nH]c3ccccc23)NC(=O)[C@H](Cc2ccccc2)NC(=O)[C@H](Cc2ccccc2)NC(=O)[C@H](CC(N)=O)NC(=O)[C@H](CCCCN)NC(=O)[C@@H](NC(=O)[C@@H]2CCCN2)CSSC[C@@H](C(=O)N[C@@H](CCCCN)C(=O)O)NC(=O)[C@H](CO)NC(=O)[C@H](CO)NC(=O)[C@H](Cc2ccccc2)NC1=O [Cortistatin(1-14)] (H-PCKNFFWKTFSSCK-OH; disulfide 2-13) | 9.28 | 9.07 | 8.57 |  | 
CSCC[C@H](NC(=O)[C@H](CCCN=C(N)N)NC(=O)[C@@H](N)CC(=O)O)C(=O)N1CCC[C@H]1C(=O)N[C@H]1CSSC[C@@H](C(=O)N[C@@H](CCCCN)C(=O)O)NC(=O)[C@H](CO)NC(=O)[C@H](CO)NC(=O)[C@H](Cc2ccccc2)NC(=O)[C@H]([C@@H](C)O)NC(=O)[C@H](CCCCN)NC(=O)[C@H](Cc2c[nH]c3ccccc23)NC(=O)[C@H](Cc2ccccc2)NC(=O)[C@H](Cc2ccccc2)NC(=O)[C@H](CC(N)=O)NC(=O)[C@H](CCCN=C(N)N)NC1=O [Cortistatin] | 9.89 | 9.48 and 9.62 | 9.27 and 9.24 | 9.34 and 8.85 | 10.22 and 9.55 and 9.38 and 9.85
C[C@@H](O)[C@@H]1NC(=O)[C@H](CCCCN)NC(=O)[C@@H](Cc2c[nH]c3ccccc23)NC(=O)[C@H](Cc2c[nH]c3ccccc23)NC(=O)[C@H](Cc2ccccc2)NC(=O)CCCCCCNC(=O)[C@H](Cc2ccccc2)NC1=O [L-362855] (cyclo([Ahp]FW[dW]KTF)) | 8.29 | 6.08 | 7.08 |  | 
CC(C)C[C@H](NC(=O)[C@H](C)NC(=O)[C@@H]1CCCN1C(=O)[C@H](CC(N)=O)NC(=O)[C@H](CO)NC(=O)[C@H](CC(N)=O)NC(=O)[C@H](C)NC(=O)[C@@H](N)CO)C(=O)N[C@@H](C)C(=O)N1CCC[C@H]1C(=O)N[C@@H](CCCN=C(N)N)C(=O)N[C@@H](CCC(=O)O)C(=O)N[C@@H](CCCN=C(N)N)C(=O)N[C@@H](CCCCN)C(=O)N[C@@H](C)C(=O)NCC(=O)N[C@H]1CSSC[C@@H](C(=O)O)NC(=O)[C@H](CO)NC(=O)[C@H]([C@@H](C)O)NC(=O)[C@H](Cc2ccc(O)cc2)NC(=O)[C@H]([C@@H](C)O)NC(=O)[C@H](CCCCN)NC(=O)[C@@H](Cc2c[nH]c3ccccc23)NC(=O)[C@H](Cc2ccccc2)NC(=O)[C@H](Cc2ccccc2)NC(=O)[C@H](CC(N)=O)NC(=O)[C@H](CCCCN)NC1=O [LTT-SRIF28] (H-SANSNPALAPRERKAGCKNFF[dW]KTYTSC-OH; disulfide 17-28) | 10.10 and 9.85 and 9.27 | 9.13 and 9.22 and 9.28 | 9.38 and 9.16 and 9.13 |  | 8.12
C[C@@H](OCc1ccccc1)[C@@H]1NC(=O)[C@H](CCCCN)NC(=O)[C@@H](Cc2c[nH]c3ccccc23)NC(=O)[C@H](Cc2ccccc2)NC(=O)CCCCCCNC1=O [c[Aha-Phe-D-Trp-Lys-Thr(Bzl)]] (cyclo([Ahp]F[dW]KT(Bn))) | 6.88 | 6.48 | 6.29 |  | 
CC(C)[C@@H]1NC(=O)[C@H](CCCCN)NC(=O)[C@@H](Cc2c[nH]c3ccccc23)NC(=O)[C@H](Cc2ccc(O)cc2)NC(=O)[C@H](C)N(C)C(=O)[C@H](Cc2ccccc2)NC1=O [seglitide] | 7.68 |  |  |  | 
